Data as given in US8147827B2, “Tumor treatment” (Genentech, Inc., priority 2004, dated 2012).
Several values for one entry are separate records, joined by “and”; a condition that tells them apart may be missing. Identical values can stand only once. Entries after “also recorded” stand apart in the source; their conditions may differ. Counter-ions that a name gives are not always drawn.

Experiments:
mouse colon = experiment: Oligonucleotide array analysis (Affymetrix Mu74Av2) of normal colon/intestine of tumor-bearing mice treated with CPT-11 or saline; type: in vivo
[1] = test system: Colo205 human colorectal cancer cells; experiment: Growth, treatment and resection of Colo205 tumor xenografts in nude mice (mass, H&E); type: in vivo
From the text: (§1) Growth and treatment of human tumor xenografts—Female nude mice (Charles River Laboratories, Hollister Calif.) were maintained in accordance with the guide for the Care and Use of Laboratory Animals, Colo205 human colorectal cancer cells were harvested, resuspended in HBSS, and injected s.c. into flanks (5×10^6 cells/flank) of 6-8 week old mice. […] Twenty-four hours following the final dose of CPT-11 or saline, tumors were resected from the animals. […]. Half of each tumor was frozen immediately in liquid nitrogen for subsequent extraction of RNA and the other half was fixed in 10% neutral buffer formalin overnight and then transferred 24 hours later into 70% ethanol for sectioning, microscopic analysis and analysis by in situ hybridization. Tumor xenografts of the DLD-1 colorectal cell line were treated and prepared in essentially the same manner. The masses of the DLD-1 colorectal tumor xenografts at time of resection were 0.24, 0.10 and 0.21 for saline controls and 0.21, 0.1 and 0.12 for CPT-11-treated tumors.

[2] = test system: DLD-1 colorectal tumor xenografts; experiment: Growth, treatment and resection of DLD-1 tumor xenografts in nude mice; type: in vivo, human; conditions: DLD-1 xenografts; CPT-11-treated; at time of resection; monohydrochloride, trihydrate
From the text: as §1

Colo205 tumors = experiment: Real-time PCR (TaqMan) of RNA from Colo205 xenograft tumors; type: in vivo, human
Protocol: Real-Time PCR (TaqMan®)'The source of RNA used for RT-PCR analysis was the same as that used for the preparation of probes for oligonucleotide array analysis. Quantitative Reverse Transcriptase-PCR (RT-PCR) was performed using TaqMan® assay reagents from Perkin-Elmer, Applied Biosystems, 50 μl RT-PCR reactions consisted of 5 μl 10× TaqMan Buffer A, 300 μM of each dNTP, 5 mM MgCl2, 10 unites of RNase inhibitor, 12.5 units of MuLV Reverse Transcriptase, 1.25 units of AmpliTaq Gold DNA Polymerase, 200 nM probe, 500 nM primers and 100 ng RNA. Reaction conditions consisted of reverse transcription at 48° C. for 10 minutes, denaturation at 95° C. for 10 minutes, and 40 thermal cycles of 95° C. for 25 seconds, and 65° C. for 1 min. Reaction products were analyzed on 4-agarose gels (Invitrogen). Fold-induction for each gene of interest was determined using the ΔΔCt method and the result is presented relative to both GAPDH and actin in each figure. The following specific probes and primer sets were used for MFGE8 (Acc#U58516): forward primer: […] (SEQ ID NO: 1), reverse primer: […] (SEQ ID NO: 2), and probe: […] (SEQ ID NO: 3); GPC1 (Acc#X54232): forward primer: […] (SEQ ID NO: 4), reverse primer: […] (SEQ ID NO: 5), and probe: […] (SEQ ID NO:6); AQP3 (Acc# N74607): forward primer: […] (SEQ ID NO: 7), reverse primer: […] (SEQ ID NO: 8), and probe, […] […]

DLD-1 tumors = experiment: Real-time PCR (TaqMan) of RNA from DLD-1 xenograft tumors, parallel to Colo205; type: in vivo, human
Protocol: (§2) Real-Time PCR (TaqMan®)'The source of RNA used for RT-PCR analysis was the same as that used for the preparation of probes for oligonucleotide array analysis. Quantitative Reverse Transcriptase-PCR (RT-PCR) was performed using TaqMan® assay reagents from Perkin-Elmer, Applied Biosystems, 50 μl RT-PCR reactions consisted of 5 μl 10× TaqMan Buffer A, 300 μM of each dNTP, 5 mM MgCl2, 10 unites of RNase inhibitor, 12.5 units of MuLV Reverse Transcriptase, 1.25 units of AmpliTaq Gold DNA Polymerase, 200 nM probe, 500 nM primers and 100 ng RNA. Reaction conditions consisted of reverse transcription at 48° C. for 10 minutes, denaturation at 95° C. for 10 minutes, and 40 thermal cycles of 95° C. for 25 seconds, and 65° C. for 1 min. Reaction products were analyzed on 4-agarose gels (Invitrogen). Fold-induction for each gene of interest was determined using the ΔΔCt method and the result is presented relative to both GAPDH and actin in each figure. The following specific probes and primer sets were used for MFGE8 (Acc#U58516): forward primer: […] (SEQ ID NO: 1), reverse primer: […] (SEQ ID NO: 2), and probe: […] (SEQ ID NO: 3); GPC1 (Acc#X54232): forward primer: […] (SEQ ID NO: 4), reverse primer: […] (SEQ ID NO: 5), and probe: […] (SEQ ID NO:6); AQP3 (Acc# N74607): forward primer: […] (SEQ ID NO: 7), reverse primer: […] (SEQ ID NO: 8), and probe, […] (SEQ ID NO: 9); CDH17 (Acc#83228): forward primer: […] (SEQ ID NO: 10), reverse primer: […] (SEQ ID NO: 11), and probe: […] (SEQ ID NO: 12); Ly6D/E48 (Acc#Y12642): forward primer: […] (SEQ ID NO: 13); reverse primer: […] (SEQ ID NO: 14); and probe: […] (SEQ ID NO: 15); and Ly6E/SCA-2 (Acc# U66711): forward primer: […] (SEQ ID NO: 16); reverse primer: […] (SEQ ID NO: 17); and probe: […] (SEQ ID NO: 18).

normal colon tissue = experiment: Real-time PCR with mouse-specific primers on normal colon of CPT-11 treated mice; type: in vivo; conditions: normal colon of CPT-11 treated vs control mice; data not shown
Protocol: Real-Time PCR (TaqMan®)'The source of RNA used for RT-PCR analysis was the same as that used for the preparation of probes for oligonucleotide array analysis. Quantitative Reverse Transcriptase-PCR (RT-PCR) was performed using TaqMan® assay reagents from Perkin-Elmer, Applied Biosystems, 50 μl RT-PCR reactions consisted of 5 μl 10× TaqMan Buffer A, 300 μM of each dNTP, 5 mM MgCl2, 10 unites of RNase inhibitor, 12.5 units of MuLV Reverse Transcriptase, 1.25 units of AmpliTaq Gold DNA Polymerase, 200 nM probe, 500 nM primers and 100 ng RNA. Reaction conditions consisted of reverse transcription at 48° C. for 10 minutes, denaturation at 95° C. for 10 minutes, and 40 thermal cycles of 95° C. for 25 seconds, and 65° C. for 1 min. Reaction products were analyzed on 4-agarose gels (Invitrogen). Fold-induction for each gene of interest was determined using the ΔΔCt method and the result is presented relative to both GAPDH and actin in each figure. The following specific probes and primer sets were used for MFGE8 (Acc#U58516): forward primer: […] NO: 1), reverse primer: […] NO: 2), and probe: […] NO: 3); GPC1 (Acc#X54232): forward primer: […] NO: 4), reverse primer: […] NO: 5), and probe: […] […] Real-time PCR with primers specific for corresponding mouse transcripts was performed and with the exceptions of SPRR3 and Aquaporin-3, all of the mouse homologs were readily detected in RNA from mouse colon. […]

LY6D/E48 transcript = experiment: LY6D/E48 mRNA induction in cultured cell lines by CPT-11 (real-time PCR); type: cell-based, human; conditions: for LY6D/E48 transcript: monohydrochloride, trihydrate
From the text: (§3) Cell lines-Colo205, HCT116, HT29 (ATCC Nos. CCL222, CCL221, CCL247, HTB38, respectively) are human colorectal adenocarcinoma cell lines. 293 is a human immortalized embryonic kidney cell line (ATCC CRL573). PC-3 is a human prostate adenocarcinoma cell line (ATCC CRL1435) and HT1080 is a human fibrosarcoma cell line (ATCC CCL-121). PC-3 stable cell lines were generated by transfection (Effectene, Qiagen) with a CMV-driven vector encoding either an NH2-terminal gD epitope-tagged form of LY6D/E48 or an empty vector and selected in 400 μg/ml G418 (Geneticin, Life Technologies, Inc.). Growth conditions were according to American Type Culture Collection (ATCC, Manassas, Va.) guidelines. For all cell lines, CPT11 treatments were done in 10 cm dishes for the indicated timepoints. Cells were harvested and RNA was prepared using RNeasy kit (Qiagen, Hilden, Germany). TaqMan® real-time quantitative PCR analysis was performed as described below.
as §2

E48/Ly-6D = E48/Ly-6D surface expression on Colo205 cells after CPT-11 (FACS, immunofluorescence); type: cell-based, human
Protocol: For flow cytometry, cells were grown to 90% confluence and removed from plates using 2 mM EDTA in PBS. Cells were washed and resuspended in FACS buffer (PBS with 1% BSA) and incubated for 60 min with anti-LY6D/[…] monoclonal antibody 15A5 or 17H7 or anti-gd antibody (Genentech, Inc.) followed by 60 min with anti-mouse secondary antibody conjugated to PE. Analysis was performed on FACS scan.

Colo205 and DLD-1 cells = Colo205 and DLD-1 cells treated in vitro with CPT-11, expression of genes of Table I; type: cell-based, human; conditions: data not shown
From the text: as §3, with “LY6D/[…]” for “LY6D/E48”

[3] = test system: Colo205 human tumor xenografts; experiment: In vivo efficacy study, Colo205 xenografts in nude mice; conditions: CPT-11 alone, 80 mg/kg IP day 0, 4 & 8; regrowth at rapid rate after last administration

Question: `CCc1c2c(nc3ccc(OC(=O)N4CCC(N5CCCCC5)CC4)cc13)-c1cc3c(c(=O)n1C2)COC(=O)[C@]3(O)CC` [CPT-11, (S)-[1,4′-bipiperidine]-1′-carboxylic acid, 4,11-diethyl-3,4,12,14-tetrahydro-4-hydroxy-3,14-dioxo-1H-pyrano[3′,4′:6,7]indolizino(1,2-b)quinolin-9-yl ester, monohydrochloride, trihydrate] was tested. Which “tumor-induced transcripts in normal mouse intestine” value (mouse colon; apart from Metallothionein (MT1G)) did it give?
Answer: none of the transcripts that were induced in the tumors by CPT-11 were induced in the normal mouse intestine

Question: And the cryptidin genes (mouse colon; normal colon, three animals treated with CPT-11)?
Answer: activated in two of the three animals treated with CPT-11

Question: And the “gene activation in colon, Mu74Av2 array” value (mouse colon; unrelated to most genes induced in the xenografts)?
Answer: activation of a small number of genes in the colon

Question: And the “average tumor mass, drug treated vs control group” value ([1]; 24 hours after third injection)?
Answer: did not differ significantly

Question: And the “average mass of the tumors” value ([1]; 24 hours after third injection, control and drug treated groups)?
Answer: approximately 300 mg

Question: And the “mass of resected tumor (individual tumors)” value ([1]; CPT-11 80 mg/kg IP three times at 4 day intervals, 24 hours after final dose, monohydrochloride, trihydrate, 80 mg/kg)?
Answer: 0.23 grams and 0.18 grams and 0.50 grams

Question: And the “mass of resected tumor (individual tumors)” value [2]?
Answer: 0.21 and 0.1 and 0.12

Question: What about the “Galectin-7 mRNA” value (Colo205 tumors; Colo205 tumors) of the same compound?
Answer: present and induced

Question: What about the “transcripts MFGE8, GPC1, AQP3, CDH17, LY6D, LY6E, identified and confirmed by real-time PCR” value (Colo205 tumors; three CPT-11 treated Colo205 tumors vs saline controls) of the same compound?
Answer: significant upregulation in all three CPT-11 treated tumors relative to controls

Question: What about the “Activation of Keratin23 and E48” value (DLD-1 tumors; Colo205 and DLD-1 tumors) of the same compound?
Answer: occurred in both tumor types

Question: And the “Neuromedin U, Annexin VIII, Transglutaminase, Aquaporin-3 and Maspin” value (DLD-1 tumors; Colo205 and DLD-1 tumors)?
Answer: all induced by SPT-11 and expressed at comparable levels in the Colo205 and DLD-1 tumors

Question: What about the “Galectin-7 mRNA” value (DLD-1 tumors; DLD-1 tumors) of the same compound?
Answer: undetectable in both treated or control DLD-1 tumors

Question: And the “Periplekin and Antileukoproteinase induction” value (DLD-1 tumors; DLD-1 tumors compared with Colo205 tumors)?
Answer: induced by SPT-11 to a degree less than that observed for the Colo205 tumors

Question: And the “genes induced by CPT-11, Colo205 and DLD-1 tumors in parallel” value (DLD-1 tumors; real-time PCR, FIG. 2)?
Answer: most of the genes were induced by CPT-11 treatment of both tumor types

Question: What about the “expression of mouse homologs of tumor-induced genes” value (normal colon tissue) of the same compound?
Answer: no difference in expression of these genes was detected

Question: What about the “LY6D/E48 mRNA” value (LY6D/E48 transcript; colorectal cancer cell line DLD-1) of the same compound?
Answer: overexpressed LY6D/E48 MRNA in response to CPT-11

Question: And the “LY6D/E48 mRNA” value (LY6D/E48 transcript; colorectal cancer cell line HCT116)?
Answer: overexpressed LY6D/E48 MRNA in response to CPT-11

Question: And the “LY6D/E48 mRNA” value (LY6D/E48 transcript; colorectal cancer cell line HT29)?
Answer: overexpressed LY6D/E48 MRNA in response to CPT-11

Question: And the LY6D/E48 transcript level (LY6D/E48 transcript; cultured Colo205 cells, 10 μM CPT-11, 24 and 48 hours)?
Answer: elevated within 24 hours post-treatment with a further enhancement by 48 hours

Question: What about the “LY6D/E48 mRNA” value (LY6D/E48 transcript; fibrosarcoma cell line HT1080) of the same compound?
Answer: overexpressed LY6D/E48 MRNA in response to CPT-11

Question: And the LY6D/E48 transcript (LY6D/E48 transcript; human embryonic kidney cell line 293, 10 μM CPT-11)?
Answer: could not be detected in the absence or presence of CPT-11; also recorded: not detected

Question: What about the LY6D/E48 transcript (LY6D/E48 transcript; human prostate cancer PC3 cell line, 10 μM CPT-11) of the same compound?
Answer: could not be detected in the absence or presence of CPT-11; also recorded: not detected

Question: And the “anti-LY6D/E48 signal intensity by fluorescence activated cell sorting” value (E48/Ly-6D; Colo205 cells, increasing concentrations of CPT-11 in vitro, 2 days)?
Answer: increased in a dose dependent manner

Question: And the “signal intensity and percentage of reactive cells by immunofluorescent microscopy” value (E48/Ly-6D; intact Colo205 cells, increasing CPT-11)?
Answer: increased with drug dosage

Question: What about the “expression of genes listed in Table I” value (Colo205 and DLD-1 cells) of the same compound?
Answer: upregulation of some of the genes listed in Table I was observed

Question: What about the tumor growth [3] of the same compound?
Answer: transiently reduced the rate of tumor growth
